Here are results for one compound from patent publication US20230375502A1, “NEUROTRANSMITTER CONCENTRATION MEASURING APPARATUS FOR PROVIDING SECOND DERIVATIVE-BASED NEUROTRANSMITTER CONCENTRATION MEASUREMENT RESULT OF FAST-SCAN CYCLIC VOLTAMMETRY DATA AND METHOD THEREOF” (Daegu Gyeongbuk Institute of Science and Technology, priority 2022, published 2023).

The test system of the assay is striatum of Parkinson's disease (PD) model (6-OHDA) mice. The assay can be described thus: FSCV/SDBR measurement of tonic dopamine concentration in the striatum after levodopa infusion. The format is in vivo. The conditions noted are these: FSCV with SDBR, levodopa injected after about 15 minutes flat signal, increases for about 25 minutes, then re-saturates. The text has this:
FIGS. 8A and 8B illustrate results of measuring a neurotransmitter concentration in an in vivo experiment using the neurotransmitter concentration measuring apparatus according to an embodiment of the present disclosure. FIGS. 8A and 8B illustrate examples for confirming SDBR-based tonic dopamine measurement results, which can be confirmed through long-term measurement using standard FSCV data, through in vivo experiments by a neurotransmitter concentration measuring apparatus according to an embodiment of the present disclosure. The graphs 810 to 813 are shown to compare the results measured in the striatum of mice after levodopa infusion. To confirm the practicality of SDBR in the in vivo environment, FSCV results after levodopa infusion of the striatum of healthy mice and the striatum of Parkinson's disease (PD) model (6-OHDA) mice are shown in FIGS. 8A and 8B. Meanwhile, the graphs 810 to 813 of FIG. 8B show the results measured by FSCV in the striatum 15 minutes after levodopa was directly injected into the experimental mice, and the graphs 810 and 811 indicate that the amplitude of the dopamine peak consistently increases independent of drug infusion due to the background subtraction technique.

Regarding `N[C@@H](Cc1ccc(O)c(O)c1)C(=O)O` [levodopa], the “estimated dopamine concentration after levodopa infusion (SDBR)” value is given as 72.4 nM.
